Consider six compounds from ChEMBL document CHEMBL1201862, “PubChem BioAssay data set” (2004).

For assay [1], the target named is Dual specificity protein kinase CLK1 (Homo sapiens, UniProt P49759). As to the kind of experiment: inhibition of human CLK1 activity – biochemical, cherry-picked samples, selectivity assay for Dyrk1A inhibitor project, dose response (AID 588811).
Assay [2] in a line: viability loss in HEK293 cells – cell-based, plate reader, cherry-picked samples, cytotoxicity control, dose response (AID 743446). Type of assay: functional.
For another assay, the target named is Paired box protein Pax-8 (Homo sapiens, UniProt Q06710). As to the kind of experiment: PAX8 transcriptional activity inhibition in RMG-I – RMG-I cells, luciferase, cherry-pick, dose response (AID 687027).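 Also: luciferase reporter driven by Pax8 target thyroperoxidase promoter measured by SteadyGlo luminescence.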 Type of assay: functional, cell-based.
Assay [3] addresses T1, Heat shock factor protein 1 (Mus musculus, UniProt P38532).
T1 sequence (P38532 whole entry): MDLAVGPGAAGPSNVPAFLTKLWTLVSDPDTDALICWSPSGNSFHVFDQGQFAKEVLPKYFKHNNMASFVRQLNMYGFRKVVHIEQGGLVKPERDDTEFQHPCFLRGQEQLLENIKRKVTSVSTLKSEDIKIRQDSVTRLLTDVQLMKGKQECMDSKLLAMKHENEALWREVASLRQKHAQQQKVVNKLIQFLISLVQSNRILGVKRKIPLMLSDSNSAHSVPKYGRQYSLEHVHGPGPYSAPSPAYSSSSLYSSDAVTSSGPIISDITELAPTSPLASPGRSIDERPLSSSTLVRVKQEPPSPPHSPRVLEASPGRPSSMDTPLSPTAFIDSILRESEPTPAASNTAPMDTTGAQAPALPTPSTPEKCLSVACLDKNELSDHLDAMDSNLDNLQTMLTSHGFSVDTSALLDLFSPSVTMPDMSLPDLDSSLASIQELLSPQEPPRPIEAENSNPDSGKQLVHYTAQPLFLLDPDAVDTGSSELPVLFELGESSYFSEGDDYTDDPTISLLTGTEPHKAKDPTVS
The experiment in a line: decrease of HSF1-responsive luciferase luminescence – cell-based, NIH3T3, dose retest, confirmation (AID 2382).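 Also: NIH3T3 fibroblasts with HSF1-driven luciferase reporter stressed by proteasome inhibitor MG132; luminescence from HSF1-driven luciferase expression after 8 hours of MG132 stress.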 Type of assay: functional.

A short description of assay [4]: non-specific 3'UTR reporter inhibition in Clone20-Shn3RL – cell-based, Renilla luciferase, cherry-picked, counter-screen for Shn3 inhibitor project, dose response (AID 624133). Type of assay: functional. (The purpose of a counterscreen is to sort out artefacts and off-target activity.)
Assay [5] is described as follows: blockers of bursicon-stimulated LGR2 cAMP reporter – cell-based, HEK293, CRE-luciferase reporter, cherry pick, set 2, dose response (AID 743343).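 Also: transfected cells were stimulated with diluted bursicon conditioned medium after compound addition.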 Type of assay: functional. A general note: A reporter such as luciferase makes a cellular process visible.
A short description of assay [6]: loss of viability in HepG2 cells – cell-based, CellTiter-Glo, cherry-picked, cytotoxicity control for Shn3 inhibitor project, dose response (AID 624134). Type of assay: functional. Background: Cellular ATP, detected with luciferase, serves as a proxy for viable cell number.
A further assay has as its system Jurkat. The experiment in a line: blockers of NF-kB activation in T cells – Jurkat, luciferase reporter, luminescence, B- and T-cell, dose response (AID 489004).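 Also: NF-kB luciferase reporter Jurkat cells stimulated with PMA plus ionomycin.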 Type of assay: functional, cell-based. The settings on record: Homo sapiens.
For assay [7], the target named is Luciferin 4-monooxygenase (Photuris pensylvanica, UniProt Q27757). The experiment in a line: inhibition of Cell Titer Glo luciferase signal – biochemical, luminescence, cherry-picks, counter-screen for HSF-1 reporter inhibitor project, dose response (AID 588847).
Assay [8] is described as follows: HEK-293T viability loss, compound-treated – cell-based, uHTS hits, cytotoxicity control for B/T-cell NF-kB inhibitor project, dose response (AID 489019).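 Also: IC50 reflects cytotoxicity as loss of cell viability.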 Type of assay: functional.
Assay [9] is described as follows: reduction of Shn3 3'UTR-driven luciferase in osteoblasts – cell-based, Clone20 osteoblasts, firefly luciferase, cherry-picked, dose response (AID 624132).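 Also: firefly luciferase luminescence from reporter carrying the Shn3 3'UTR in osteoblasts.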 Type of assay: functional.
Another assay deals with T2, Protein skinhead-1 (Caenorhabditis elegans, UniProt P34707).
T2 sequence (P34707 whole entry): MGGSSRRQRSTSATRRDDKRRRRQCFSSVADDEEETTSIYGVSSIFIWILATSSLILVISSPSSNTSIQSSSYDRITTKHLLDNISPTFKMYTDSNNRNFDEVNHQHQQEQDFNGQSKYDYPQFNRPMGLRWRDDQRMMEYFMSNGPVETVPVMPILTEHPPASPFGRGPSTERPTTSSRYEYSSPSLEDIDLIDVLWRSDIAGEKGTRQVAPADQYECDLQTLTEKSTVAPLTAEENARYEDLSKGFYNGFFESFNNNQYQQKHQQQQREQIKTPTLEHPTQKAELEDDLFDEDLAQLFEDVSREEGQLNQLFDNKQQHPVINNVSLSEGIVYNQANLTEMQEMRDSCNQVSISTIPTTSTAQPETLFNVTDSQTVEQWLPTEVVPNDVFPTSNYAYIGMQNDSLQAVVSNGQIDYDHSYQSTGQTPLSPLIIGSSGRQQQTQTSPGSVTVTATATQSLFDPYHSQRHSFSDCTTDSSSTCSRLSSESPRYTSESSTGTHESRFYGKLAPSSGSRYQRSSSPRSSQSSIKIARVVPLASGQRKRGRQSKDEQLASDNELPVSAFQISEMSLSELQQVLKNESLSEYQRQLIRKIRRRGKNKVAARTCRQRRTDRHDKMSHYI
Type of assay: functional.

The nature of assay [10]: blockade of melanocortin 4 receptor signaling – cell-based, plate reader, cherry pick, counter-screen for LGR2 antagonist project, dose response (AID 743444).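 Also: transfected HEK 293 cells stimulated with alpha-MSH peptide; potency of inhibitors of the alpha-MSH evoked signal.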 Type of assay: functional.
A short description of assay [11]: toxicity toward HepG2 liver cells – cell-based, plate reader, cherry-pick, antagonist series, cytotoxicity control, dose response (AID 743416). Type of assay: functional.
Assay [12] addresses Dual specificity tyrosine-phosphorylation-regulated kinase 1A (Rattus norvegicus, UniProt Q63470). Type of assay: biochemical, Homo sapiens.
In assay [13] the target is T3, Rac GTPase-activating protein 1 (Homo sapiens, UniProt Q9H0H5).
T3 sequence (Q9H0H5 whole entry): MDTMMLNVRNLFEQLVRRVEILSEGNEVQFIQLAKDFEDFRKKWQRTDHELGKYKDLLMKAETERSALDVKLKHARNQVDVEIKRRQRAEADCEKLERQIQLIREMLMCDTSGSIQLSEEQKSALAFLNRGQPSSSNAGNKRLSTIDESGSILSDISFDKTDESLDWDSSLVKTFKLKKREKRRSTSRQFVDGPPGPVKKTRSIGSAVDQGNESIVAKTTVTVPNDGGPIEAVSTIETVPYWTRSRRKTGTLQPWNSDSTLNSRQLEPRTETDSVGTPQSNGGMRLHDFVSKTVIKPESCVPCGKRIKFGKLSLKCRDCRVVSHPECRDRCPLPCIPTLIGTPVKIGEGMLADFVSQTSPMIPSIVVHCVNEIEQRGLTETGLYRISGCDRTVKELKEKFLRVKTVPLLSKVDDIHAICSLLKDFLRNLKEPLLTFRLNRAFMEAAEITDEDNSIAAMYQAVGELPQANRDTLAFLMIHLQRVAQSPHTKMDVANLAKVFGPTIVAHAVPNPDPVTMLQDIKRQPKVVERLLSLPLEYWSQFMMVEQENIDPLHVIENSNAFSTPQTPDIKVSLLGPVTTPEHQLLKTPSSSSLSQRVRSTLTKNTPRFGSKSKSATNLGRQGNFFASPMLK
The experiment in a line: blockers of MgcRacGAP-driven Rac1 GTP hydrolysis – biochemical, ADP Hunter fluorescence, primary and confirmatory, confirmation (AID 624330). Type of assay: functional.

The target of a further assay is DNA topoisomerase (Yersinia pestis, UniProt A0A2S9PM60). As to the kind of experiment: Yersinia topoisomerase I cleavage product accumulation – biochemical, cherry-pick, dose response (AID 588525).
Another assay has as its system INS1. As to the kind of experiment: INS-1E survival protection against cytokine death – cell-based, luminescence, retest, dose response (AID 449756).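 Also: cell death triggered by IL-1 beta plus TNF-alpha plus IFN-gamma mixture; protective hits raise ATP signal compared with cytokine alone wells.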 Type of assay: functional. The following applies: Rattus norvegicus.
Assay [14] in a line: Luminescence Cell-Based Dose Retest to Confirm Inhibitors of Cancer Stem Cells. [Related pubchem assays (depositor defined):AID2717, AID2721]. Type of assay: functional. The settings on record: Homo sapiens.
Assay [15] has as its system Streptococcus sp. 'group A'. As to the kind of experiment: Streptococcus pyogenes SK(-)GAS viability under kanamycin – luminescence, BacTiterGlo, confirmation, counter-screen for streptokinase expression inhibitor project, dose response (AID 1900). Type of assay: functional, organism-based.
The target in the next assay is T4, Streptokinase A (Streptococcus pyogenes serotype M1, UniProt P10520).
T4 sequence (P10520 whole entry): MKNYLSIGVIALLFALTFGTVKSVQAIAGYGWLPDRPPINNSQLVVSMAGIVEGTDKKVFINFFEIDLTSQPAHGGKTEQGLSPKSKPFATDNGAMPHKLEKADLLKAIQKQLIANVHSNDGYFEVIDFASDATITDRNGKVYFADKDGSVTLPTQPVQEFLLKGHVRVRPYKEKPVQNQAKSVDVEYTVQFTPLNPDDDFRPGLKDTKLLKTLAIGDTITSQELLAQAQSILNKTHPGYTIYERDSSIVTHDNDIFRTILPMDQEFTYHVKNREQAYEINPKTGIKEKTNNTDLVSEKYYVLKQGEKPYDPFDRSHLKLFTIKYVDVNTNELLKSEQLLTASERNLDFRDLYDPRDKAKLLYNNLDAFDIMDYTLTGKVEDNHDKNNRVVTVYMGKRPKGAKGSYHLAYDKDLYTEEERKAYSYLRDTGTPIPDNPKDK
As to the kind of experiment: viability-normalized secreted streptokinase activity reduction – plasminogen activation absorbance, OD405, dose response (AID 1914).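 Also: secreted streptokinase activity via plasminogen activation per viability signal from cell pellet.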 Type of assay: functional, Streptococcus pyogenes M1 GAS.

Another assay addresses Cysteine protease ATG4B (Homo sapiens, UniProt Q9Y4P1). Type of assay: functional.
The next assay addresses Phospholipase A2 (Homo sapiens, UniProt P04054). Type of assay: functional.
A further assay has as its system Streptococcus. The experiment in a line: GAS UMAA2166 growth inhibition – luminescence, BacTiterGlo, counter-screen for streptokinase expression inhibitor project, dose response (AID 1915).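 Also: potency for reduction of bacterial viability or growth.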 Type of assay: functional, organism-based.
Assay [16] concerns Candida albicans. As to the kind of experiment: Candida growth inhibition combined with fluconazole – CaCi-2 strain, Alamar Blue, dry powder, set 3, dose response (AID 488907). Type of assay: functional, organism-based.
For assay [17], the system named is Candida albicans. As to the kind of experiment: C. albicans growth inhibition with fluconazole – CaCi-2 strain, Alamar Blue, dry powder, set 4, dose response (AID 488943). Type of assay: functional, organism-based.
Assay [18] deals with Candida albicans. As to the kind of experiment: fluconazole-resistant Candida strain growth inhibitors – CaCi-8 strain, dry powder, set 4, dose response (AID 488950). Type of assay: functional, organism-based.

Broadly, the AC50 is the concentration giving half of the maximal activity seen. The EC50 is the concentration at which the effect is half-maximal. By IC50 is commonly meant the concentration that gives 50% inhibition.

The source made the active and inactive calls.

Sequence of Paired box protein Pax-8 (Q06710 whole entry): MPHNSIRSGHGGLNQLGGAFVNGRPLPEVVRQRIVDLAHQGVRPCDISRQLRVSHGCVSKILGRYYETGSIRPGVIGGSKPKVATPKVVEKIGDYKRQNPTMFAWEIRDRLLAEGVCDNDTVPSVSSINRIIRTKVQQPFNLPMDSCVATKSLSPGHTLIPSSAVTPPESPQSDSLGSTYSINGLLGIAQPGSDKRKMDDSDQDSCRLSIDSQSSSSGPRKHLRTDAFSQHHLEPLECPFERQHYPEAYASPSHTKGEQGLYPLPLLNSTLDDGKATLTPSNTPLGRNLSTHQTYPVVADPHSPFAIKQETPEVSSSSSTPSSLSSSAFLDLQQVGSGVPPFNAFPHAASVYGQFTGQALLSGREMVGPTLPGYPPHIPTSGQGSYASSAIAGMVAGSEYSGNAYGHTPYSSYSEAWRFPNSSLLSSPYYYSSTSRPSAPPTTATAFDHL
Sequence of Phospholipase A2 (P04054 whole entry): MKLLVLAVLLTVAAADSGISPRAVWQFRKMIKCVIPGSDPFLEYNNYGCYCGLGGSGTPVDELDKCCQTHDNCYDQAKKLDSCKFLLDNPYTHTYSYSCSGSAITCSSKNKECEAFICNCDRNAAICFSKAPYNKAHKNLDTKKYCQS
Sequence of DNA topoisomerase (A0A2S9PM60 whole entry): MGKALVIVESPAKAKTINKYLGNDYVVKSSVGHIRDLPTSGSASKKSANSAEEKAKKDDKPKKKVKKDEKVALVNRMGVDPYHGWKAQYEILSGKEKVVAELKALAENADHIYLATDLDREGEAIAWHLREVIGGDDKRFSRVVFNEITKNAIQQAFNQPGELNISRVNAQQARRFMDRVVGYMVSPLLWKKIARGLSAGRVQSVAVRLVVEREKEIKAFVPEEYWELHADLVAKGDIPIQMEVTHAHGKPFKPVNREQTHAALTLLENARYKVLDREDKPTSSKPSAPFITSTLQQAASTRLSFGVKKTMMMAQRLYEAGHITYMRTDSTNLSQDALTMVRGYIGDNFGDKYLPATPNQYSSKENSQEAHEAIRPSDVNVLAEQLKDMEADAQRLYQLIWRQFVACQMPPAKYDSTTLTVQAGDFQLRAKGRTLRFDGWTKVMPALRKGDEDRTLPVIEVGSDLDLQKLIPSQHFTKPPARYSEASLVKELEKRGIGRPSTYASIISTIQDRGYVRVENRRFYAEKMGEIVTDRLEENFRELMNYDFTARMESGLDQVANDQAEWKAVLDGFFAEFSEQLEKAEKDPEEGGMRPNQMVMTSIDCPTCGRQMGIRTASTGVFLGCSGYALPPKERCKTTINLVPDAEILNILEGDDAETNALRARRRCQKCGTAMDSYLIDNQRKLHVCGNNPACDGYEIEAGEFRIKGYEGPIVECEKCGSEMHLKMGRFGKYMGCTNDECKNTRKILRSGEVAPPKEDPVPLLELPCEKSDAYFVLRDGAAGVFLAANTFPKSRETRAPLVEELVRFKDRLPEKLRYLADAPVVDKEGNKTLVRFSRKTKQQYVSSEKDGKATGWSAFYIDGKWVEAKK
Sequence of Luciferin 4-monooxygenase (Q27757 whole entry): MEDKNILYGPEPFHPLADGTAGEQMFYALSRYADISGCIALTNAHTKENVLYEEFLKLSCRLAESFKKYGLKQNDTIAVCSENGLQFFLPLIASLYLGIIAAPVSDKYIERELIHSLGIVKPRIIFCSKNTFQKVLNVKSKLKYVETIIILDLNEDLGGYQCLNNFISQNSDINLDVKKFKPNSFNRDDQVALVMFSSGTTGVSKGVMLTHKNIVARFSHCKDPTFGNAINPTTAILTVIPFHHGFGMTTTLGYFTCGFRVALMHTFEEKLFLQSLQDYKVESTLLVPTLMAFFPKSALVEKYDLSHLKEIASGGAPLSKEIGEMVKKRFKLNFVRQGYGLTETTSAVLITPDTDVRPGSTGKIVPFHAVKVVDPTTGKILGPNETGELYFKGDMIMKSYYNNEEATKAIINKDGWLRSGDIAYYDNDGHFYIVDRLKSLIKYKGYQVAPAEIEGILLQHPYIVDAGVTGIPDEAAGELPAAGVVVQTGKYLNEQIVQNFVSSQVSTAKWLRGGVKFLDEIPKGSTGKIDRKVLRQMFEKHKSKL
Sequence of Dual specificity protein kinase CLK1 (P49759 whole entry): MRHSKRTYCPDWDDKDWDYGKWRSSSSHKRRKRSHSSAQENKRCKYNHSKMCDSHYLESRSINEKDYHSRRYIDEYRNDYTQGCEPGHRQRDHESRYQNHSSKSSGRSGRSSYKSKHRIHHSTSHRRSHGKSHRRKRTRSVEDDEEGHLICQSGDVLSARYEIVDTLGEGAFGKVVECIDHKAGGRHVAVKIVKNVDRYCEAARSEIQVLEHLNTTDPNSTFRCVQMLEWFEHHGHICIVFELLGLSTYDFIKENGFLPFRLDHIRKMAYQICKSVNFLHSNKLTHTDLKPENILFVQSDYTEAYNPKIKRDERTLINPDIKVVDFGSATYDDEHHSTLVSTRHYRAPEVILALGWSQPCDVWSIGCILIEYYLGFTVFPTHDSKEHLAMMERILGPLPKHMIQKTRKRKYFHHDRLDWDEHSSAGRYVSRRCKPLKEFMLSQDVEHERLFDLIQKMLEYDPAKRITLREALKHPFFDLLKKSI
Sequence of Cysteine protease ATG4B (Q9Y4P1 whole entry): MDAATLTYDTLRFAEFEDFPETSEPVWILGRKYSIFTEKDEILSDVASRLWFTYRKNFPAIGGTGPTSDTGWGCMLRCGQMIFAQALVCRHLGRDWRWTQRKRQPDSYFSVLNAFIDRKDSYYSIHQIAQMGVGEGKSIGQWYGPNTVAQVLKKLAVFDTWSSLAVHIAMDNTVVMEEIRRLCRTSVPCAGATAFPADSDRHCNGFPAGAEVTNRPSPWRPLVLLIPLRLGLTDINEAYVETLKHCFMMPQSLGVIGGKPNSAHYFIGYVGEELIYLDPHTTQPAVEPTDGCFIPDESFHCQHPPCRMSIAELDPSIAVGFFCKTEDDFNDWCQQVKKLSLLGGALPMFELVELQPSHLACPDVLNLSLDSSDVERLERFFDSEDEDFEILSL

For the compound `Cc1ccsc1CN(C)c1ncnc2ccc(-c3ccc(CO)o3)cc12`, the AC50 in assay [1] is 0.0161 µM (active).

For the compound `CN(C(=O)OC(C)(C)C)c1ccc(-c2nc3ccccc3s2)cc1`, the AC50 in assay [2] was 46.5 µM (active); at Paired box protein Pax-8 it was 0.379 µM (active); in assay [4] it was 7.35 µM (active); in [5], < 0.068 µM (active); in [6], > 70 µM (inactive); in [7], 1.42 µM (active). Further, the half-maximal activity concentration (AC50) in [9] is < 0.26 µM (active); in [10] it was < 0.068 µM (active); in assay [11], > 52 µM (inactive). Moreover, the 50% effective concentration (EC50) in assay [3] is < 0.16 µM (active). Moreover, the values for the IC50 (in the assay on Jurkat; in assay [8]; on Protein skinhead-1) were < 0.16 µM (active), > 80 µM (inactive) and > 100 µM (inactive), respectively.

`Oc1ccc(-c2csc(NCc3ccco3)n2)cc1`: in assay [12], the AC50 was 6.71 µM (active). The half-inhibitory concentration (IC50) in [13] is 22.1 µM (active).

As to `O=C(NCCN(CCNC(=O)c1nc[nH]c1C(=O)Nc1ccc(Cl)cc1)CCNC(=O)c1nc[nH]c1C(=O)Nc1ccc(Cl)cc1)c1nc[nH]c1C(=O)Nc1ccc(Cl)cc1`, the half-maximal activity concentration (AC50) at DNA topoisomerase was 6.39 µM (active); with INS1 it was 7.12 µM (active); in [14], 1.67 µM (active).

Turning to `CC(C)c1ccccc1OCC(=O)NC1CCCc2ccccc21` (configuration not stated), the EC50 in assay [15] is 16.3 µM (active); at Streptokinase A, 18.5 µM (active); in the assay on Streptococcus, > 150 µM (not active). Besides, the IC50 was 12.2 µM (active) at Cysteine protease ATG4B and 9.38 µM (active) at Phospholipase A2.

With `O=C(c1ccc(Cl)cc1)N1CCN(c2nc3ccccc3o2)CC1`, the concentration at half-maximal activity (AC50) in the assay with Candida albicans [16] is 0.465 µM (active); in the assay on Candida albicans [17], 14.9 µM (active); with Candida albicans [18], 0.176 µM (active).
